# System: rat adjuvant-induced arthritis model
# Assay: Rat adjuvant-induced arthritis model
# Assay type: in vivo
# Conditions: for infiltration of inflammatory cells into the joint after switching from MTX: MTX 0th to 10th day then Compound 1 1 mg/kg to 24th day; for overall effect on the arthritis (summary): summary of leg volume results, injected and non-injected legs
# Description: There were intracutaneously injected 0.05 mL (0.6 mg/animal) each of a suspension of killed M. butyricum (12 mg/mL) in liquid paraffin into the back of the right hind legs of 8-week-old female rats of LEW/CrlCrlj line (available from Japan Charles-River Co., Ltd.) to thus induce the arthritis (the 0th day). Then 0.5 mL (per body weight of 100 g) each of an agent solution prepared using a 0.5% methyl cellulose (0.5% MC) was orally administered to each of the test animals. To the adjuvant-injected control animal group, there was administered only the 0.5% MC. Methotrexate (MTX, available from Sigma Company) (0.1 mg/kg) was administered to each test animal, once a day, during the term extending from the 0th day to the 10th day, every day. On or after the 11th day, (R)-2-amino-5-[2-chloro-4-(3-trifluoro methylphenylthio)phenyl]-2-methyl-1-pentanol hydrochloride (hereunder simply referred to as “Compound 1”) (1 mg/kg) was administered to the test animals, instead of methotrexate, once a day up to the 24th day every day. The evaluation of the arthritis was carried out according to the following procedures: The volumes of the right and left hind legs of each test animal were determined on the 0th, 8th, 11th, 14th, 18th, 21st and 25th days of the testing period using a volume-determining meter (MK-550 available from Muromachi Machine, Co., Ltd.) and then the rate of increase in the volume of the hind leg was determined for each of the right and left hind legs of each individual test animal. Then there was prepared a pathological specimen (stained with hematoxylin eosin) of a joint extending from the distal end of the shinbone to the tarsalia to evaluate the degree of the infiltration of inflammatory cells into the joint.
# In case of the adjuvant-induced arthritis, acute inflammation, whose far advanced stage is observed on around 3rd day, is recognized on the adjuvant-injected leg and thereafter it is once degenerated. Then the systemic inflammation due to the systemic immunological abnormality is initiated on about 10th day and as a result, the onset of arthritis is observed on the non-injected leg in parallel with the injected leg.
# [1] = adjuvant-injected leg, MTX 0.1 mg/kg orally once a day, 0th to 10th day, observed 8th to 11th day, FIG. 1
SMILES,"progress of the arthritis after switching from MTX (adjuvant-injected leg, MTX 0.1 mg/kg 0th to 10th day, then Compound 1 1 mg/kg orally once a day 11th to 24th day, FIG. 1)","infiltration of inflammatory cells into the joint after switching from MTX (injected leg, pathological specimen, observed 25th day, FIG. 3E)","onset of the arthritis after switching from MTX (non-injected leg, MTX 0.1 mg/kg 0th to 10th day, then Compound 1 1 mg/kg orally once a day 11th to 24th day, FIG. 2)","infiltration of inflammatory cells into the joint after switching from MTX (non-injected legs, pathological specimen)",overall effect on the arthritis (summary),"symptom of arthritis after stopping administration (adjuvant-injected leg, MTX 0th to 10th day, discontinued on and after 11th day, FIG. 1)",increase in the volume of the leg [1],progress of the arthritis [1],"infiltration of inflammatory cells into the joint (injected leg, pathological specimen (hematoxylin eosin), MTX 0th to 10th day, observed 11th day, FIG. 3B)","infiltration of inflammatory cells into the joint after stopping administration (injected leg, pathological specimen, MTX 0th to 10th day then stopped, observed 25th day, FIG. 3D)","arthritis after stopping administration (non-injected leg, MTX 0th to 10th day, discontinued on and after 11th day, FIG. 2)","onset of the arthritis (non-injected leg, MTX 0.1 mg/kg orally 0th to 10th day, at the 11th day, FIG. 2)"
"C[C@](N)(CO)CCCc1ccc(Sc2cccc(C(F)(F)F)c2)cc1Cl.Cl [Compound 1, (R)-2-amino-5-[2-chloro-4-(3-trifluoromethylphenylthio)phenyl]-2-methyl-1-pentanol hydrochloride]",the progress of the arthritis was inhibited,any infiltration of inflammatory cells into the joint was suppressed,the onset of the arthritis was suppressed,any infiltration of inflammatory cells into the joint was found to be suppressed,could maintain the MTX-suppressed condition of the symptom of the arthritis,,,,,,,
"CN(Cc1cnc2nc(N)nc(N)c2n1)c1ccc(C(=O)N[C@@H](CCC(=O)O)C(=O)O)cc1 [MTX, Methotrexate]",,,,,"could suppress the onset and progress of arthritis, but the arthritis was immediately advanced when stopping the administration thereof",the symptom of arthritis was again advanced,there was not observed any increase in the volume of the leg,the progress of the arthritis was found to be inhibited,any infiltration of inflammatory cells into the joint was suppressed,the conspicuous infiltration of inflammatory cells into the joint was recognized,the arthritis was initiated when stopping the administration of MTX,the onset of the arthritis in the non-injected leg was suppressed

# — patent US20110152275A1, “AGENT FOR MAINTENANCE OF INDUCED REMISSION” (priority 2008, published 2011)
